Data on two compounds can be found in patent publication US11286231B2, “Hydrogen-bonding compounds, compositions comprising the same, and methods of preparing and using the same” (Wake Forest University Health Sciences, priority 2016, dated 2022).

Data set [1] in a line: Preliminary rheology, shear elastic modulus G′ of modular HA hydrogel with catechol amine. The class given is physicochemical. To be noted: catechol amine bound to thiolated HA/gelatin hydrogel via thiol-alkyne, FIG. 1. The text has this:
(§1) These increases were not observed in control groups. This gives validation to the activity of the newly added catechol components of the system. […] Following this observation we employed the rheometer using a customized protocol to apply a tensile stretch to hydrogels that had immobilized between the base and testing geometry of the rheometry. The geometry was brought into contact with the sample and lowered until 0.4 N normal force was reached by the load cell. At this point, the sample was allowed to equilibrate for 30 seconds, after which the rheometer applied constant displacement vertically at 5 um/s, raising the geometry 1000 um, during which time resistive force (“stickiness”) was measured by the load cell every second.
Mechanical bulk properties. Hydrogels will be formed in custom molded 12 mm dishes and assessed by rheology to determine bulk material shear elastic modulus. […]

Data set [2] in a line: Preliminary rheometer tensile stretch (stickiness) test of catechol amine hydrogel. It is filed as physicochemical.
Text: as §1

In the next data set the test system is Caco-2. The experiment in a line: 2D 7-day MTS assay, cell proliferation on hydrogels. The class given is cell-based. To be noted: Caco-2, 2D on hydrogel, days 1, 4, 7, 490 nm, FIG. 7. On the procedure:
(§2) At the proper confluency, the plates were washed with 10 mL of DPBS followed by an addition of 5 mL of trypsin and a 5 min incubation time at 37° C. Upon the conclusion of the incubation time light microscopy was used to determine that the cells had become detached. 5 mL of DMEM-10-1 was added to the plate and the trypsin/DMEM mixture was transferred into a 15 mL conical tube. A 1:4:5 ratio of cell mixture/DMEM-10-1/trypan blue was created in a 2.0 mL cryogenic vial. The mixture contained ˜1.2×10^5 cells-mL-1. The cells were pelleted down by centrifugation at 1500 rpm for 5 minutes and the trypsin/DMEM mixture was aspirated. The cells were resuspended in 10 mL of DMEM-10-1. For the MTS assay, 3.0×10^4 cells per well were seeded (In total 2.43×10^6 cells are needed for 81 wells). In each well (n=3 per time point) of a 96 well plate 16 μL of Heprasil® ([…], 1% w/v), 16 μL of Gelatin-S® (10 mg-mL-1, 1% w/v), 4 μL of Extralink® (5 mg 0.250 μL-1, 2% w/v), and 4 μL of modular catecholamine ([…], 3.6 mM, 1% w/v), C1.1 and C1.2, respectively were mixed by gently pipetting the solution up and down. The wells were then exposed to UV radiation (˜222 nm) for 3 seconds at distance of 1 cm to initiate crosslinking and form the hydrogel matrix. Approximately 30,000 cells were seeded per well; 200 μL of DMEM+10% FBS+1% pen-strep media at a density of 1.2×10^5 cells-mL-1 were aliquoted into each well, Caco-2 and HepG2 cell lines, respectively. A total of 27 wells per time point (3 per condition-positive control, catecholamine (C1.1), and catecholamide (C1.2) for each cell line, Caco-2 and HepG2. For the 3D cell cultural technique and amount of cells used in the live/dead assay refer to the Live/Dead Assay section.
(§3) The MTS assay is widely-used as a nonradioactive quantification of cellular proliferation, viability, and cytotoxicity.28 The MTS assay based on the reduction of MTS tetrazolium compound by viable cells to generate a colored formazan product that is soluble in cell culture media. This conversion is thought to be carried out by NAD(P)H-dependent dehydrogenase enzymes in metabolically active cells. MTS assays were performed using a CellTiter 96® AQueous One Solution Cell Proliferation Assay (G3582, Promega) at days 1, 4, 7. […] At the conclusion of the 45-minute incubation period a Molecular Device SpectraMax M5 plate reader was used to determine the optical density of each well monitored at 490 nm. […] Reported uncertainties were calculated using the standard deviations between the normalized OD values for n=3 runs of each condition.
(§4) In addition to Live/Dead assays, MTS assays were used to quantify the proliferation of cells. In this case, the ability for cells to proliferate in 2D when seeded on the hydrogels was assessed.
For orientation: Formazan colour is commonly taken as a measure of viable cells.

The next data set deals with HepG2. Described as above. It is filed as cell-based. To be noted: HepG2, 2D on hydrogel, days 1, 4, 7, 490 nm, FIG. 7. On the procedure: as §2, §3, §4

For the compound `C#CCNCc1ccc(O)c(O)c1` [Compound C1.1], the “G′ values of the hydrogel constructs (change)” value in data set [1] is “further increased the G′ values”. Besides, the “increase in tensile resistance” value in data set [2] (catechol amine containing hydrogel, 5 um/s, 1000 um, FIG. 2, preliminary) is on record as 3 fold. For the same compound, the “stickiness of hydrogel constructs during mechanical shear testing” value in data set [2] (qualitative) is on record as “significantly more “stickiness””. The “cell proliferation, normalized optical density (MTS) compared to control” value in the data set with Caco-2 and in the data set with HepG2 was “higher” throughout.
With `C#CCNC(=O)Cc1ccc(O)c(O)c1` [Compound C1.2], the “cell proliferation, normalized optical density (MTS) compared to control” value with Caco-2 and in the data set with HepG2 was “higher” throughout.
